According to patent US6603044B1, “Phthalamide derivatives, or salt thereof agrohorticultural insecticide, and method for using the same” (Nihon Nohyaku Co., Ltd., priority 1998, dated 2003):

Tested on: Diamond Back Moth (Plutella xylostella)
Assay: Insecticidal effect on diamond back moth (Test Example 1)
Format: in vivo
Conditions: 50 ppm; Chinese cabbage seedling with deposited eggs immersed about 30 seconds; 25° C.; six days after the immersion
From the text: Insecticidal Effect on Diamond Back Moth (Plutella xylostella)
Adult diamondback moths were released and allowed to oviposit on a Chinese cabbage seedling. Two days after the release, the seedling having the eggs deposited thereon was immersed for about 30 seconds in a liquid chemical prepared by diluting a preparation containing each compound listed in Table 1, 2 or 3 as an active ingredient to adjust the concentration to 50 ppm. After air-dryness, it was allowed to stand in a room thermostatted at 25° C. Six days after the immersion, the hatched insects were counted. The mortality was calculated according to the following equation and the insecticidal effect was judged according to the criterion shown below. The test was carried out with triplicate groups of 10 insects.

| SMILES | Test Example 1 insecticidal effect (mortality) |
| --- | --- |
| Cc1cc(C(F)(C(F)(F)F)C(F)(F)F)ccc1NC(=O)c1cccc(F)c1C(=O)N(C)CC[S+](C)[O-] (centres unmarked) [2-9] | A (100) |
| Cc1cc(C(F)(C(F)(F)F)C(F)(F)F)ccc1NC(=O)c1cccc(I)c1C(=O)NC1(C[S+](C)[O-])CCCC1 (centres unmarked) [compound 446] | A (100) |
| Cc1cc(C(F)(C(F)(F)F)C(F)(F)F)ccc1NC(=O)c1cccc(I)c1C(=O)NC1(CS(C)(=O)=O)CCCC1 [compound 447] | A (100) |
| Cc1cc(C(F)(F)C(F)(F)F)ccc1NC(=O)c1cccc([N+](=O)[O-])c1C(=O)NC(C)C[S+](C)[O-] (centres unmarked) [compound 391] | A (100) |
| CCC(CSC)NC(=O)c1c(I)cccc1C(=O)Nc1ccc(C(F)(C(F)(F)F)C(F)(F)F)cc1C (centres unmarked) [compound 120] | A (100) |
| CSCC(C)NC(=O)c1c(I)cccc1C(=O)Nc1ccc(Cl)cc1C (centres unmarked) [compound 9] | A (100) |
| Cc1cc(C(F)(F)C(F)(F)F)ccc1NC(=O)c1c(Cl)cccc1C(=O)NC(C)CS(C)(=O)=O (centres unmarked) [compound 116] | A (100) |
| CSCC(C)NC(=O)c1ccc(I)cc1C(=O)Nc1ccc(OC(F)(F)F)cc1C (centres unmarked) [compound 110] | A (100) |
| Cc1cc(OC(F)(F)F)ccc1NC(=O)c1cccc(I)c1C(=O)NC1CCSC1 (centres unmarked) [compound 258] | A (100) |
| CSCC(C)NC(=O)c1ccccc1C(=O)Nc1ccc(C(F)(F)C(F)(F)F)cc1C (centres unmarked) [compound 14] | A (100) |
| CSCC(C)NC(=O)c1c(C(=O)Nc2ccc(C(F)(C(F)(F)F)C(F)(F)F)cc2C)cccc1[S+]([O-])C(F)(F)F (centres unmarked) [compound 132] | A (100) |
| CCSCC(C)NC(=O)c1ccc(OC(F)(F)F)cc1C(=O)Nc1ccc(C(F)(C(F)(F)F)C(F)(F)F)cc1C (centres unmarked) [compound 347] | A (100) |
| CCCCCCSCC(C)NC(=O)c1c(I)cccc1C(=O)Nc1ccc(OC(F)(F)F)cc1C (centres unmarked) [compound 77] | A (100) |
| CSCCNC(=O)c1c(I)cccc1C(=O)Nc1ccc(OC(F)(F)F)cc1C [compound 52] | A (100) |
| Cc1cc(OC(F)(F)F)ccc1NC(=O)c1ccc(Cl)c(Cl)c1C(=O)NC(C)CS(C)(=O)=O (centres unmarked) [compound 194] | A (100) |
| CSCC(C)NC(=O)c1ccccc1C(=O)Nc1ccc(OC(F)(F)F)cc1C (centres unmarked) [compound 15] | A (100) |
| CSCC(C)(C)NC(=O)c1c(I)cccc1C(=O)Nc1ccc(C(=O)c2ccc(Cl)cc2)cc1C [compound 469] | A (100) |
| Cc1cc(C(F)(F)F)ccc1NC(=O)c1cccc(Br)c1C(=O)NC(C)CS(C)(=O)=O (centres unmarked) [compound 277] | A (100) |
| CSCC(C)NC(=O)c1cc(I)ccc1C(=O)Nc1ccc(OC(F)(F)F)cc1C (centres unmarked) [compound 107] | A (100) |
| CCSC(C)CNC(=O)c1cccc(I)c1C(=O)Nc1ccc(C(F)(C(F)(F)F)C(F)(F)F)cc1C (centres unmarked) [compound 209] | A (100) |

| SMILES | Test Example 1 insecticidal effect (mortality) |
| --- | --- |
| CSCC(C)NC(=O)c1c(I)cccc1C(=O)Nc1cc2c(cc1Cl)OC(F)(F)C(F)O2 (centres unmarked) [compound 47] | A (100) |
| CSCC(CSC)NC(=O)c1c(I)cccc1C(=O)Nc1ccc(C(F)(F)C(F)(F)F)cc1C [compound 36] | A (100) |
| Cc1cc(C(F)(C(F)(F)F)C(F)(F)F)ccc1NC(=O)c1cccc(I)c1C(=O)N1CCSC1 [3-2] | A (100) |
| CCSCC(C)NC(=O)c1c(F)cccc1C(=O)Nc1ccc(OC(F)(F)F)cc1C (centres unmarked) [compound 27] | A (100) |
| Cc1cc(C(F)(F)C(F)(F)F)ccc1NC(=O)c1cccc(Cl)c1C(=O)NC(C)CCC[S+](C)[O-] (centres unmarked) [compound 152] | A (100) |
| CSCC(C)NC(=O)c1c(C(=O)Nc2ccc(OC(F)(F)F)cc2C)ccc(F)c1Cl (centres unmarked) [compound 147] | A (100) |
| CSCC(C)(C)NC(=O)c1c(C(=O)Nc2ccc(OC(F)(F)F)cc2C)ccc2c1OC(F)(F)O2 [compound 292] | A (100) |
| CSCC(C)NC(=O)c1c(C(=O)Nc2ccc(C(F)(F)C(F)(F)F)cc2C)ccc2c1OCO2 (centres unmarked) [compound 158] | A (100) |
| CCCCCCSCC(C)NC(=O)c1c(I)cccc1C(=O)Nc1ccc(C(F)(C(F)(F)F)C(F)(F)F)cc1C (centres unmarked) [compound 78] | A (100) |
| CSCC(C)NC(=O)c1cccc(S(C)(=O)=O)c1C(=O)Nc1ccc(C(F)(C(F)(F)F)C(F)(F)F)cc1C (centres unmarked) [Compound No. 192, N^1-(4-Heptafluoroisopropyl-2-methylphenyl)-N^2-(1-methyl-2-methylthioethyl)-6-methylsulfonylphthalamide] | A (100) |
| CC(CS(C)(=O)=O)NC(=O)c1c(I)cccc1C(=O)Nc1cc2c(cc1Cl)OC(F)(F)C(F)O2 (centres unmarked) [compound 103] | A (100) |
| Cc1cc(OC(F)(F)F)ccc1NC(=O)c1cccc(I)c1C(=O)NCCSC(C)C [compound 58] | A (100) |
| CSCC(C)(C)NC(=O)c1ccc(OC(F)(F)F)cc1C(=O)Nc1ccc(C(F)(C(F)(F)F)C(F)(F)F)cc1C [compound 356] | A (100) |
| CC(C)(CS(C)(=O)=O)NC(=O)c1c(F)cccc1C(=O)Nc1ccc(OC(F)(F)F)cc1Cl [compound 387] | A (100) |
| CCN(CC[S+](C)[O-])C(=O)c1c(F)cccc1C(=O)Nc1ccc(C(F)(C(F)(F)F)C(F)(F)F)cc1C (centres unmarked) [2-11] | A (100) |
| CCS(=O)(=O)CCC(C)NC(=O)c1c(Cl)cccc1C(=O)Nc1ccc(C(F)(C(F)(F)F)C(F)(F)F)cc1C (centres unmarked) [compound 275] | A (100) |
| CSCC(C)NC(=O)c1c(C(=O)Nc2ccc(OC(F)(F)F)cc2C)cccc1[N+](=O)[O-] (centres unmarked) [compound 104] | A (100) |
| CSCC(C)(C)NC(=O)c1c(C(=O)Nc2ccc(OC(F)(F)F)cc2C)cccc1[N+](=O)[O-] [compound 322] | A (100) |
| CC(C)(CS(C)(=O)=O)NC(=O)c1c(C(=O)Nc2ccc(OC(F)(F)F)cc2Cl)cccc1[N+](=O)[O-] [compound 378] | A (100) |
| CSCC(C)(C)NC(=O)c1c(C(=O)Nc2ccc(Br)cc2C)cccc1[N+](=O)[O-] [compound 324] | A (100) |

| SMILES | Test Example 1 insecticidal effect (mortality) |
| --- | --- |
| CC[S+]([O-])CCCC(C)NC(=O)c1c(Br)cccc1C(=O)Nc1ccc(C(F)(C(F)(F)F)C(F)(F)F)cc1C (centres unmarked) [compound 214] | A (100) |
| CSCC(C)NC(=O)c1c(F)cccc1C(=O)Nc1ccc(OC(F)(F)F)cc1C (centres unmarked) [compound 12] | A (100) |
| CSCCNC(=O)c1cccc(I)c1C(=O)Nc1ccc(OC(F)(F)F)cc1C [compound 51] | A (100) |
| C[S+]([O-])CC(C)(C)NC(=O)c1c(C(=O)Nc2ccc(OC(F)(F)F)cc2Cl)cccc1[N+](=O)[O-] (centres unmarked) [compound 377] | A (100) |
| CCN(CSC)C(=O)c1c(Cl)cccc1C(=O)Nc1ccc(OC(F)(F)F)cc1C [2-16] | A (100) |
| COC(=O)CC[S+]([O-])CC(C)NC(=O)c1c(I)cccc1C(=O)Nc1ccc(C(F)(C(F)(F)F)C(F)(F)F)cc1C (centres unmarked) [compound 342] | A (100) |
| CSCC(C)NC(=O)c1c(SC(F)(F)F)cccc1C(=O)Nc1ccc(C(F)(F)C(F)(F)F)cc1C (centres unmarked) [compound 129] | A (100) |
| Cc1cc(C(F)(C(F)(F)F)C(F)(F)F)ccc1NC(=O)c1cccc(I)c1C(=O)NC(C)CS(=O)(=O)c1nc2ccccc2s1 (centres unmarked) [compound 345] | A (100) |
| CSCC(C)NC(=O)c1c(F)cccc1C(=O)Nc1ccc(OC(F)F)cc1C (centres unmarked) [compound 13] | A (100) |
| CCN(CC)S(=O)(=O)c1ccc(NC(=O)c2cccc(I)c2C(=O)NC(C)(C)CSC)cc1 [compound 478] | A (100) |
| COc1ccc(C(=O)Nc2ccc(C(F)(C(F)(F)F)C(F)(F)F)cc2C)c(C(=O)NC(C)CSC)c1Cl (centres unmarked) [compound 222] | A (100) |
| CSCC(C)NC(=O)c1c(I)cccc1C(=O)Nc1ccc(OC(F)F)cc1C (centres unmarked) [compound 4] | A (100) |
| CSCCC(CO)NC(=O)c1c(I)cccc1C(=O)Nc1ccc(C(F)(C(F)(F)F)C(F)(F)F)cc1C (centres unmarked) [compound 452] | A (100) |
| CSCC(C)NC(=O)c1c(I)cccc1C(=O)Nc1ccc(C(F)(F)F)cc1C (centres unmarked) [compound 307] | A (100) |
| CSCCCC(C)NC(=O)c1cccc(Cl)c1C(=O)Nc1ccc(C(F)(F)C(F)(F)F)cc1C (centres unmarked) [compound 151] | A (100) |
| COC(=O)CCS(=O)(=O)CC(C)NC(=O)c1c(I)cccc1C(=O)Nc1ccc(C(F)(C(F)(F)F)C(F)(F)F)cc1C (centres unmarked) [compound 343] | A (100) |
| CSCCN(C)C(=O)c1c(F)cccc1C(=O)Nc1ccc(C(F)(C(F)(F)F)C(F)(F)F)cc1C [2-7] | A (100) |
| CCSCCNC(=O)c1c(I)cccc1C(=O)Nc1ccc(OC(F)(F)F)cc1C [compound 71] | A (100) |
| CC[S+]([O-])CCCCC(C)NC(=O)c1c(I)cccc1C(=O)Nc1ccc(C(F)(F)C(F)(F)F)cc1C (centres unmarked) [compound 177] | A (100) |
